ChEMBL document CHEMBL4665643 (Bioorg Med Chem Lett, 2019)

What was measured:
[1] = target: T1, Dual specificity protein kinase TTK (Homo sapiens) (UniProt P33981); assay: Inhibition of tracer 236 binding to recombinant human GST-tagged full length TTK expressed in baculovirus expression system at 0.1 uM incubated for 60 mins by Lanthascreen assay relative to control
T1 sequence (whole entry): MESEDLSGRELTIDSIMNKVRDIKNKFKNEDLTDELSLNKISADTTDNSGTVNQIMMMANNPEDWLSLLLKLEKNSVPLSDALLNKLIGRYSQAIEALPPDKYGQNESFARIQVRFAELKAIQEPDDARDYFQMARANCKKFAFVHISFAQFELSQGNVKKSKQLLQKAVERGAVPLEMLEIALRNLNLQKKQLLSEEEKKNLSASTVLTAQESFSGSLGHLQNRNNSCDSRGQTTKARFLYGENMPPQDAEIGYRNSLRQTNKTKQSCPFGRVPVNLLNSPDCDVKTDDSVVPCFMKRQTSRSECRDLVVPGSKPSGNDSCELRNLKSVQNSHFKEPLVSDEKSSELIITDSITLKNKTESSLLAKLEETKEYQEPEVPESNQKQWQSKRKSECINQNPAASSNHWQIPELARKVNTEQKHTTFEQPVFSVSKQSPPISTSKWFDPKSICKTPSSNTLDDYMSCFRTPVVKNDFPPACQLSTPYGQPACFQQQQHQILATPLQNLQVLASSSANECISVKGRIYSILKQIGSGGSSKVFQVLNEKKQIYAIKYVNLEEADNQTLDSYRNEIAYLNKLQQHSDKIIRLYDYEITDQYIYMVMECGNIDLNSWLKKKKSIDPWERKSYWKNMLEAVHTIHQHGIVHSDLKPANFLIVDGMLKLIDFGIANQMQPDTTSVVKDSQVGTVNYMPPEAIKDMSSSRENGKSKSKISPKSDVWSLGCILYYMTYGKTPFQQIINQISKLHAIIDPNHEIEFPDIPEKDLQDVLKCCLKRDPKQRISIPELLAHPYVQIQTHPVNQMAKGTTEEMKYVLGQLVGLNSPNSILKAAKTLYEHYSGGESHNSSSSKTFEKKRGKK

[2] = target: T2, Mitogen-activated protein kinase 13 (Homo sapiens) (UniProt O15264); assay: Inhibition of recombinant human His-tagged full length p38 delta expressed in baculovirus expression system using Ser/Thr 03 as substrate at 0.1 uM incubated for 60 mins by Z'-Lyte assay relative to control
T2 sequence (whole entry): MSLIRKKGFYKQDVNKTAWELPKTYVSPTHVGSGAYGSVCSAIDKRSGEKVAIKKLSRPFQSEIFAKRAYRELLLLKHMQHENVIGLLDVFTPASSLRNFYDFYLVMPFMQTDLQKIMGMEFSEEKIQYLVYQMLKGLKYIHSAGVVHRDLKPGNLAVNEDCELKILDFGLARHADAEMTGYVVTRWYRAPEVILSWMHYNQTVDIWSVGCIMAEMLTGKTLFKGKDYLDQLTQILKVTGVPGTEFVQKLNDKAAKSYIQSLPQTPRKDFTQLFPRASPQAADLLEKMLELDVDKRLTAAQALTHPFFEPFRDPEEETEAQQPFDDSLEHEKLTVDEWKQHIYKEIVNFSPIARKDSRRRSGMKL

[3] = target: Epidermal growth factor receptor (Homo sapiens) (UniProt P00533); assay: Inhibition of recombinant human GST-tagged EGFR (668 to 1210 residues) expressed in baculovirus expression system using Tyr 4 as substrate at 0.1 uM incubated for 60 mins by Z'-Lyte assay relative to control
Sequence of Epidermal growth factor receptor (Homo sapiens) (P00533 whole entry, the tested form may be a part): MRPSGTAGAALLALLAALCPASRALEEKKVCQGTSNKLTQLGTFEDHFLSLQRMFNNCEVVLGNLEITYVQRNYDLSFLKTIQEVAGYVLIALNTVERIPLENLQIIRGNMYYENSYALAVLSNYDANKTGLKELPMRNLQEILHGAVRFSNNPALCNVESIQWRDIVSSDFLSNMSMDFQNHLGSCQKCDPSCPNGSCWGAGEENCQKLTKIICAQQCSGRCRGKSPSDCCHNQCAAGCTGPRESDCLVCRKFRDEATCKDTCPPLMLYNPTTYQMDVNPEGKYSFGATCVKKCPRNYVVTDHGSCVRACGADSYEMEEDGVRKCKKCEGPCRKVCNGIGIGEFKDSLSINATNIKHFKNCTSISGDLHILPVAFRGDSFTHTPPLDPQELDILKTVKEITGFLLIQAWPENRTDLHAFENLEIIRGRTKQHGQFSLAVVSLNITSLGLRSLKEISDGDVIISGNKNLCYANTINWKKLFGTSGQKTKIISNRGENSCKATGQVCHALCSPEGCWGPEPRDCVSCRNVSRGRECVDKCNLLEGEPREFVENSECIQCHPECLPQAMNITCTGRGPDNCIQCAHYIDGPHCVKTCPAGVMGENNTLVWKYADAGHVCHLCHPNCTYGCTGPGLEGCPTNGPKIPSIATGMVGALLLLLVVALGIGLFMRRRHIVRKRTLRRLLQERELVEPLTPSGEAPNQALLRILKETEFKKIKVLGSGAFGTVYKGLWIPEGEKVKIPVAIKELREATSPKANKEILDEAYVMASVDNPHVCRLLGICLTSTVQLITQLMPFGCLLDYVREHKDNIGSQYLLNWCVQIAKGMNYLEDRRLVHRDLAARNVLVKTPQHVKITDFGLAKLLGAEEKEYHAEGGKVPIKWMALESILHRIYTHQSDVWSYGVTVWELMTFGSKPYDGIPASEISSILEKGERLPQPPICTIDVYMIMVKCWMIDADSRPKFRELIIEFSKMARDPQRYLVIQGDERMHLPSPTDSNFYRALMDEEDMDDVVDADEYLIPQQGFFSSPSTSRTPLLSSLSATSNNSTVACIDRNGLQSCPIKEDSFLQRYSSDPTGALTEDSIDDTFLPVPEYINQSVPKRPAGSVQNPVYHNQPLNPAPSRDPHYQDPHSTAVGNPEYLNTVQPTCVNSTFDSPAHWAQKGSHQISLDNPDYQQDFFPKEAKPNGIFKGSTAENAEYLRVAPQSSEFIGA

[4] = target: Fibroblast growth factor receptor 1 (Homo sapiens) (UniProt P11362); assay: Inhibition of recombinant human His-tagged FGFR1 (308 to 731 residues) expressed in baculovirus expression system using Tyr 01 as substrate at 0.1 uM incubated for 60 mins by Z'-Lyte assay relative to control
Sequence of Fibroblast growth factor receptor 1 (Homo sapiens) (P11362 22-822 limits assumed): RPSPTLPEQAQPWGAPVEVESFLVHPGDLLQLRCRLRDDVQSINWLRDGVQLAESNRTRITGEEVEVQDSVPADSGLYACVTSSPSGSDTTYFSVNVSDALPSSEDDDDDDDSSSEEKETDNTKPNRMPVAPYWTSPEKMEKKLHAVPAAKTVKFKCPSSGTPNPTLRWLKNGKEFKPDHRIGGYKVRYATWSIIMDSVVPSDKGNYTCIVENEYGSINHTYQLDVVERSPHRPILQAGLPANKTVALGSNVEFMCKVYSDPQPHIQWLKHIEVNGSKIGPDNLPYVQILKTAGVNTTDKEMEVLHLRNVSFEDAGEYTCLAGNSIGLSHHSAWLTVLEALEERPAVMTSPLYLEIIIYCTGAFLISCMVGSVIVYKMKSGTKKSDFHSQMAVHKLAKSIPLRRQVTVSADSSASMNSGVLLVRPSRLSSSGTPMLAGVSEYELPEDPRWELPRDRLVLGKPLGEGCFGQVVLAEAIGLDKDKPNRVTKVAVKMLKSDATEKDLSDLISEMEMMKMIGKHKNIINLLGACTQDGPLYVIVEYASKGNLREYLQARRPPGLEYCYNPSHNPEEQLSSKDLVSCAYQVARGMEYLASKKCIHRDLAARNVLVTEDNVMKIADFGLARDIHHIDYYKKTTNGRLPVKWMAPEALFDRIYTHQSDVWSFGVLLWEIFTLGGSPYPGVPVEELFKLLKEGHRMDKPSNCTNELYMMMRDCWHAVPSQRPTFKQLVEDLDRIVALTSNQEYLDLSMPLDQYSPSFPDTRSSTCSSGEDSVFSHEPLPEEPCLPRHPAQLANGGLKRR

[5] = target: Protein kinase C alpha type (Homo sapiens) (UniProt P17252); assay: Inhibition of recombinant human His-tagged full length PKCalpha expressed in Escherichia coli expression system using Ser/Thr 07 as substrate at 0.1 uM incubated for 60 mins by Z'-lyte assay relative to control
[6] = target: T3, Aurora kinase A (Homo sapiens) (UniProt O14965); assay: Inhibition of recombinant human His-tagged full length Aurora A expressed in baculovirus expression system using Ser/Thr 01 as substrate at 0.1 uM incubated for 60 mins by Z'-Lyte assay relative to control
T3 sequence (whole entry): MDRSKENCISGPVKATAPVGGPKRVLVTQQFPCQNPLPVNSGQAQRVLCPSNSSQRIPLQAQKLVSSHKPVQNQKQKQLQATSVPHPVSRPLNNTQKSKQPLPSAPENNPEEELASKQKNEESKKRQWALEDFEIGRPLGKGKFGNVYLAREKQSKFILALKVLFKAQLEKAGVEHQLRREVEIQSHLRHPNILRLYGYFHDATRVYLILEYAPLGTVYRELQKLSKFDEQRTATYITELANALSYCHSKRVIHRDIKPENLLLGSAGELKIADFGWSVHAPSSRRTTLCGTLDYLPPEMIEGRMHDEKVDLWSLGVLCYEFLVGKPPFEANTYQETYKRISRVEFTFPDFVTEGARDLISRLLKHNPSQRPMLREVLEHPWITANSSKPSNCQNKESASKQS

[7] = target: T4, G protein-coupled receptor kinase 3 (Homo sapiens) (UniProt P35626); assay: Inhibition of recombinant human GST-tagged full length GRK3 expressed in baculovirus expression system using Ser/Thr 16 as substrate at 0.1 uM incubated for 60 mins by Z'-Lyte assay relative to control
T4 sequence (whole entry): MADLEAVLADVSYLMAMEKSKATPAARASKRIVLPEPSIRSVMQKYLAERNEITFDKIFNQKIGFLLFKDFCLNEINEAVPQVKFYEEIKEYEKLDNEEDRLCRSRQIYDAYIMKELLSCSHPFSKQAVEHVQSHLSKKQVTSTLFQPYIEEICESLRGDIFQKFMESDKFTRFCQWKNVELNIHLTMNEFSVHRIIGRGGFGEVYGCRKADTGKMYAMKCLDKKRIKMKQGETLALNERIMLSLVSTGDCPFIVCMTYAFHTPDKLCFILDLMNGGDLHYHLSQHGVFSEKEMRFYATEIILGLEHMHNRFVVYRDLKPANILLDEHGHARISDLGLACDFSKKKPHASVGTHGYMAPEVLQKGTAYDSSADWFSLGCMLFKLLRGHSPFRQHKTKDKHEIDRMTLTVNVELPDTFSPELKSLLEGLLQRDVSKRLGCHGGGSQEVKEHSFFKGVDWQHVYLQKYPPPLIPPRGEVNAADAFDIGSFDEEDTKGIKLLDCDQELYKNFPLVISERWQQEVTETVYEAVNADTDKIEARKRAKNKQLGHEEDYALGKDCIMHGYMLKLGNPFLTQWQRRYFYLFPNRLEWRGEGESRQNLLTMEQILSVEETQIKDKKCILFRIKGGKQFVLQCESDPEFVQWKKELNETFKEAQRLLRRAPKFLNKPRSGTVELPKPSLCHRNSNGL

SMILES: O=C(Nc1c[nH]nc1-c1cc(Cl)ccc1OC(F)F)c1cnn2cccnc12
- inhibition [1]: 4%
- inhibition [2]: 10%
- inhibition [3]: 0%
- inhibition [4]: -1%
- inhibition [5]: 12%
- inhibition [6]: 20%
- inhibition [7]: -1%

SMILES: O=C(Nc1c[nH]nc1-c1cc2ccccc2cc1OC(F)F)c1cnn2cccnc12
- inhibition [1]: -3%
- inhibition [2]: 6%
- inhibition [3]: 6%
- inhibition [4]: 1%
- inhibition [5]: 1%
- inhibition [6]: 24%
- inhibition [7]: 1%

SMILES: Cn1cc(NC(=O)c2cnn3cccnc23)c(-c2cc(Cl)ccc2OC(F)F)n1
- inhibition [1]: 5%
- inhibition [2]: 0%
- inhibition [3]: 2%
- inhibition [4]: 6%
- inhibition [5]: 11%
- inhibition [6]: 13%
- inhibition [7]: 3%
